Results as given in patent EP4782453A1 (Beyang Therapeutics Co., Ltd., priority 2023, dated 2025).
Read-outs that look alike come from different tables or passages of the source.

Key:
[1] = system: KG-1a (wild-type MLL); test: Inhibition of proliferation of human tumor cells (Alamar Blue, 7 days), KG-1a control cell line; assay type: cell-based; conditions: 168 h, KG-1a cells (wild-type MLL, control cell line), method calls the value GI50
Text: Experimental Example 2: Evaluation of Inhibitory Activity of Compounds Against Proliferation of Human Tumor Cells
• Human acute lymphoblastic leukemia cells MV-4-11, purchased from American Type Culture Collection, Catalog Number: CRL-9591; • Human acute myeloid leukemia cells MOLM-13, purchased from COBIOER BIOSCIENCES CO., LTD, Catalog Number: CBP60678; • Human acute myeloid leukemia cells KG-1a, purchased from American Type Culture Collection, Catalog Number: CCL-246.1; • Inverted Microscope, purchased from Olympus Tokyo; • Countess™ Automated Cell Counter, purchased from Invitrogen, Model: C10281; and • Multilabel Reader, purchased from Bio-Tek, Model: Synergy HT.
MV-4-11 cells were cultured in an IMDM medium containing 10% fetal bovine serum, KG-a cells were cultured in an IMDM medium containing 20% fetal bovine serum, or MOLM-13 cells were cultured in an RPMI-1640 medium containing 20% fetal bovine serum, each supplemented with 100 U·mL^-1 penicillin and 100 µg·mL^-1 streptomycin. These cells were cultured at 37°C with 5% CO2. The suspensions of individual cell lines were prepared in their respective media and seeded into 96-well plates at a density of 4,000 cells/well for MV-4-11 and MOLM-13 cells, or 3,000 cells/well for KG-1a cells. On the day of the experiment, a compound stock solution was diluted in a 3-fold or 4-fold gradient using DMSO. Each gradient-diluted stock solution was then further diluted 250-fold with a complete medium to prepare a series of working solutions at different concentrations. Subsequently, 100 µL of working solution (containing a 2-fold concentration series of the test compound) was added to each well, with duplicate wells set up for each concentration.
Seven days after compound addition (on Day 7), an Alamar Blue assay reagent (MCE, HY-111391 / CS-0040317) was added to measure the fluorescence intensity in each well. Wells containing the cells in the growth medium supplemented with 0.1% DMSO (Day 7) served as high-read control wells. The readouts from the wells containing the cells in the growth medium supplemented with 0.1% DMSO on the day of compound addition (Day 0) served as low-reading control well. GraphPad Prism software was used to calculate the concentration required to inhibit 50% of cell proliferation (GI50), which serves as a cell proliferation inhibition activity index.

[2] = biological target: T1, Menin-MLL (Homo sapiens, UniProt O00255); test: Inhibitory activity against Menin-MLL binding (fluorescence polarization); conditions: 150 nM His-Menin, 15 nM FITC-MLL, 25°C for 60 min
T1 construct: His-Menin (M1-L615 end); purchased BIORTUS BP9210
T1 sequence (O00255 1-615 isoform O00255-1): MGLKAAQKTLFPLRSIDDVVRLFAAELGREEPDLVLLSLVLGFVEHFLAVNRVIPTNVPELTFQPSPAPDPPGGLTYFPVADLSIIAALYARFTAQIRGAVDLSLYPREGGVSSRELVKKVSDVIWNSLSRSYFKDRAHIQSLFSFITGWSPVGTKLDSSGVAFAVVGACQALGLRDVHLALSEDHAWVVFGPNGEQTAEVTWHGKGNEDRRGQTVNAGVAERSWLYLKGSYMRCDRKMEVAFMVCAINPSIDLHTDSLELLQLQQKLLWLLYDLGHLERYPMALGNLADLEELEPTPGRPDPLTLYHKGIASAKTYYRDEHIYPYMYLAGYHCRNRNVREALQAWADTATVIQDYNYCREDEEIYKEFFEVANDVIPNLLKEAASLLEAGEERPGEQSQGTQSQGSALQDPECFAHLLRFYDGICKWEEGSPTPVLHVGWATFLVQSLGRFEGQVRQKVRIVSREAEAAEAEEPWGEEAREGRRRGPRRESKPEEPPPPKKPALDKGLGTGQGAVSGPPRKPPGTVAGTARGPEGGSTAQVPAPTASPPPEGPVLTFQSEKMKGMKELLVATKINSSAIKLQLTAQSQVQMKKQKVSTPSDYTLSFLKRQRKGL
Outline: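 Fluorescence polarization competition: compound and 150 nM His-tagged menin (residues M1-L615) sit 15 min at 25 °C in pH 7.5 HEPES buffer with NaCl, DTT and BSA; 15 nM FITC-labelled MLL peptide then binds for 60 min. IC50 fitted sigmoidally from mP values, duplicate wells.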

[3] = system: MV-4-11 (carrying MLL-AF4); test: Inhibition of proliferation of human tumor cells (Alamar Blue, 7 days), MV-4-11; assay type: cell-based; conditions: Homo sapiens, MV4-11, 168 h, MV-4-11 cells (carrying MLL-AF4), method calls the value GI50
Outline: (§1)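 Alamar Blue fluorescence at Day 7, normalised between 0.1% DMSO wells on Day 7 (high) and Day 0 (low), gives GI50. Cells grew with compound at 37°C, 5% CO2; seeding 4,000 cells/well for MV-4-11 and MOLM-13, 3,000 for KG-1a.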

[4] = system: MOLM-13 (carrying MLL-AF9); test: Inhibition of proliferation of human tumor cells (Alamar Blue, 7 days), MOLM-13; assay type: cell-based; conditions: Homo sapiens, MOLM-13 cells (carrying MLL-AF9), method calls the value GI50
Outline: as §1

[5] = fluorescence polarization, read-out: Menin-MLL IC50
[6] = Menin-MLL IC50, fluorescence polarization

Compound	IC50 [1] [µM]	IC50 [2, 5] [µM]	IC50 [3] [µM]	IC50 ([4]; 168 h) [µM]	IC50 [2, 6] [µM]	IC50 ([4]; MOLM-13, 168 h) [µM]
CCN(C(=O)c1cc(F)ccc1-c1cc(C2CCN(CCc3ccc(-c4cc(OC)c(OC)nn4)cc3)CC2)cn2cncc12)C(C)C [Compound 42, 2-[6-(1-{2-[4-(5,6-dimethoxypyridazin-3-yl)phenyl]ethyl}piperidin-4-yl)imidazo[1,5-a]pyridin-8-yl]-N-ethyl-5-fluoro-N-(isopropyl)benzamide]	3.3	0.0035	0.0033	0.026		
CCN(C(=O)c1cc(F)ccc1-c1cc([C@H]2CC[C@@H](NCc3ccc(-c4cc(OC)c(OC)nn4)cc3)CC2)cn2cncc12)C(C)C [Example 18-1, N-ethyl-5-fluoro-N-(isopropyl)-2-{6-[(1s,4s)-4-({[4-(5,6-dimethoxypyridazin-3-yl)phenyl]methyl}amino)cyclohexyl]imidazo[1,5-a]pyridin-8-yl}benzamide]	9.7		0.018		0.006	0.061
CCN(C(=O)c1cc(F)ccc1-c1cc([C@H]2CC[C@H](NCc3ccc(-c4cc(OC)c(OC)nn4)cc3)CC2)cn2cncc12)C(C)C [Example 18-2, N-ethyl-5-fluoro-N-(isopropyl)-2-{6-[(1r,4r)-4-({[4-(5,6-dimethoxypyridazin-3-yl)phenyl]methyl}amino)cyclohexyl]imidazo[1,5-a]pyridin-8-yl}benzamide]	6.5		0.0094		0.0055	0.043
CCN(C(=O)c1cc(F)ccc1-c1cc(C2(F)CCN(C[C@H]3CC[C@H](NS(=O)(=O)CC)CC3)C2)cn2c(C)ncc12)C(C)C (stereo partly shown) [Example 73, N-ethyl-5-fluoro-2-[6-(3-fluoro-1-{[(1r,4r)-4-ethanesulfonamidocyclohexyl]methyl}pyrrolidin-3-yl)-3-methylimidazo[1,5-a]pyridin-8-yl]-N-(isopropyl) benzamide]	20		0.061		0.028	
CCN(C(=O)c1cc(F)ccc1-c1cc(C2CN(C(=O)C3NC4CCC3CC4)C2)cn2c(C)ncc12)C(C)C [Example 90, N-ethyl-5-fluoro-2-(3-methyl-6-{1-[(1R,3S,4S)-2-azabicyclo[2.2.2]octan-3-carbonyl]azacyclobutan-3-yl}imidazo[1,5-a]pyridin-8-yl)-N-(isopropyl)benzamide]	20		0.02		0.011	0.099
CCS(=O)(=O)N[C@H]1CC[C@H](CN2CC(c3cc(-c4ccc(F)cc4C(=O)N4CCOC[C@H]4C)c4c(F)nc(C)n4c3)C2)CC1 [Example 145, N-[(1r,4r)-4-{[3-(1-fluoro-8-{4-fluoro-2-[(3R)-3-methylmorpholin-4-carbonyl]phenyl}-3-methylimidazo[1,5-a]pyridin-6-yl)azacyclobutan-1-yl]methyl}cyclohexyl]ethan-1-sulfonamide]	19		0.013		0.018	0.0295
COCCN(C)CCCC(C(C)C)N1CC(c2cc(-c3ccc(F)cc3C(=O)N(CC(F)F)C(C)C)c3cnc(C)n3c2)C1 (stereo not shown) [Example 149]	5.3	0.0085	0.0021	0.0083		
COCCN(C)CCCC(C(C)C)N1CC(c2cc(-c3ccc(F)cc3C(=O)N3CCOC[C@H]3C)c3cnn(C)c3c2)C1 (stereo partly shown) [Example 162]	7	0.024	0.027	0.067		
CCS(=O)(=O)N[C@H]1CC[C@H](CN2CC(c3cc(-c4ccc(F)cc4C(=O)N4[C@H](C)COC[C@H]4C)c4cnn(C)c4c3)C2)CC1 [Example 168]	20		0.032		0.0325	0.104
COCC1CN(CCC[C@H](C(C)C)N2CC(c3cc(-c4ccc(F)cc4C(=O)N4CCOC[C@H]4C)c4cnn(C)c4c3)C2)C1 [Example 183-2]	11	0.0117	0.0079	0.039		
COCC1CN(CCC[C@H](C(C)C)N2CC(c3cc(-c4ccc(F)cc4C(=O)N4CCOC[C@H]4C)c4c(F)nc(C)n4c3)C2)C1 [Example 203]	20	0.0033	0.0021	0.0056		
Cc1cncc2c(-c3ccc(F)cc3C(=O)N(CC(F)F)C(C)C)cc(CC3CN(CC4CCOCC4)C3)n12 [Example 206, N-(2,2-difluoroethyl)-5-fluoro-2-[4-methyl-6-({1-[(oxacyclohexan-4-yl)methyl]azacyclobutan-3-yl}methyl)pyrrolo[1,2-a]pyrazin-8-yl]-N-(isopropyl)benzamide]	20	0.0035	0.0035	0.015		
Cc1nc(F)c2c(-c3ccc(F)cc3C(=O)N3CCOC[C@H]3C)cc(C3CN([C@H](CC[C@H]4CNCCO4)C(C)C)C3)cn12 [Example 244-1, (3R)-4-[5-fluoro-2-(1-fluoro-3-methyl-6-{1-[(3R)-4-methyl-1-[(2S)-morpholin-2-yl]pentan-3-yl]azacyclobutan-3-yl}imidazo[1,5-a]pyridin-8yl)benzoyl]-3-methylmorpholine]	20	0.0095	0.016	0.039		
Cc1nc(F)c2c(-c3ccc(F)cc3C(=O)N3CCOC[C@H]3C)cc(C3CN([C@H](CC[C@@H]4CNCCO4)C(C)C)C3)cn12 [Example 245-1, (3R)-4-[5-fluoro-2-(1-fluoro-3-methyl-6-{1-[(3R)-4-methyl-1-[(2R)-morpholin-2-yl]pentan-3-yl]azacyclobutan-3-yl}imidazo[1,5-a]pyridin-8yl)benzoyl]-3-methylmorpholine]	20	0.0085	0.0066	0.04		
Cc1nc(F)c2c(-c3ccc(F)cc3C(=O)N3CCOC[C@H]3C)cc(C3CN([C@@H](C)C4CCN(C(=O)CC#N)CC4)C3)cn12 [Example 263-2]	20	0.007	0.0053	0.013		
Cc1cncc2c(-c3ccc(F)cc3C(=O)N3CCOC[C@H]3C)cc(CC3CN(CC4CCN(C(=O)C5CC5)CC4)C3)n12 [Example 286, (3R)-4-{2-[6-({1-[(1-cyclopropanecarbonylpiperidin-4-yl)methyl]azacyclobutan-3-yl}methyl)-4-methylpyrrolo[1,2-a]pyrazin-8-yl]-5-fluorobenzoyl}-3-methylmorpholine]	20	0.0035	0.0046	0.019		
CCC(=O)N1CCC(CN2CC(Cc3cc(-c4ccc(F)cc4C(=O)N4CCOC[C@H]4C)c4cncc(C)n34)C2)CC1 [Example 287]	20	0.006	0.009	0.048		
